Measured values as given in US20240158348A1, “HERBICIDAL CYCLIC AMIDES N-SUBSTITUTED WITH A HALOALKYLSULFONYLANILIDE GROUP” (FMC Corporation, priority 2021, published 2024).

Assays:
Assay type in all cases: in vivo
[1] = tested on: blackgrass (Alopecurus myosuroides); assay: Test C preemergence, blackgrass; conditions: 0 is no effect, 100 is complete control
Procedure, shortened: (§1)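 Pre: soil sprayed at seeding. Post: seedlings treated at 1–2 leaves (2–10 cm). Vehicle non-phytotoxic solvent mix with surfactant; loam–sand medium; greenhouse; visual injury read at 10 or 12 days, scale 0–100.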

corn (Zea mays) [2] = assay: Test C preemergence, corn; conditions: 0 is no effect, 100 is complete control
Procedure, shortened: (§2)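 Herbicidal effect was estimated visually on a 0–100 scale 10 or 12 days after spraying. Formulation: non-phytotoxic solvent mixture with surfactant. Timing: directed soil spray after sowing, or postemergence on seedlings bearing one or two leaves.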

[3] = tested on: foxtail, giant (giant foxtail, Setaria faberi); assay: Test C preemergence, giant foxtail; conditions: 0 is no effect, 100 is complete control
Procedure, shortened: as §1

[4] = tested on: goosegrass (Eleusine indica); assay: Test C preemergence, goosegrass; conditions: 0 is no effect, 100 is complete control
Procedure, shortened: as §2

kochia (Bassia scoparia) [5] = assay: Test C preemergence, kochia; conditions: 0 is no effect, 100 is complete control
Procedure, shortened: as §1

[6] = tested on: oat, wild (wild oat, Avena fatua); assay: Test C preemergence, wild oat; conditions: 0 is no effect, 100 is complete control
Procedure, shortened: as §1

[7] = tested on: pigweed, palmer (palmer amaranth, Amaranthus palmeri); assay: Test C preemergence, palmer amaranth; conditions: 0 is no effect, 100 is complete control
Procedure, shortened: as §1

[8] = tested on: ragweed (common ragweed, Ambrosia artemisiifolia); assay: Test C preemergence, ragweed; conditions: 0 is no effect, 100 is complete control
Procedure, shortened: as §2

[9] = tested on: ryegrass, Italian (Italian ryegrass, Lolium multiflorum); assay: Test C preemergence, Italian ryegrass; conditions: 0 is no effect, 100 is complete control
Procedure, shortened: as §1

soybean (Glycine max) [10] = assay: Test C preemergence, soybean; conditions: 0 is no effect, 100 is complete control
Procedure, shortened: as §1

[11] = tested on: wheat (Triticum aestivum); assay: Test C preemergence, wheat; conditions: 0 is no effect, 100 is complete control
[12] = tested on: blackgrass (Alopecurus myosuroides); assay: Test C postemergence, blackgrass; conditions: 31 g ai/ha Postemergence; visual injury, 0 to 100 scale (0 no effect, 100 complete control)
Procedure, shortened: as §1

corn (Zea mays) [13] = assay: Test C postemergence, corn
[14] = tested on: foxtail, giant (giant foxtail, Setaria faberi); assay: Test C postemergence, giant foxtail
[15] = tested on: goosegrass (Eleusine indica); assay: Test C postemergence, goosegrass
Procedure, shortened: as §1

kochia (Bassia scoparia) [16] = assay: Test C postemergence, kochia
Procedure, shortened: as §1

[17] = tested on: oat, wild (wild oat, Avena fatua); assay: Test C postemergence, wild oat
[18] = tested on: pigweed, palmer (palmer amaranth, Amaranthus palmeri); assay: Test C postemergence, palmer amaranth
Procedure, shortened: as §1

[19] = tested on: ragweed (common ragweed, Ambrosia artemisiifolia); assay: Test C postemergence, ragweed
Procedure, shortened: as §1

[20] = tested on: ryegrass, Italian (Italian ryegrass, Lolium multiflorum); assay: Test C postemergence, Italian ryegrass
Procedure, shortened: as §1

soybean (Glycine max) [21] = assay: Test C postemergence, soybean
[22] = tested on: wheat (Triticum aestivum); assay: Test C postemergence, wheat
Procedure, shortened: as §1

[23] = tested on: galium (catchweed bedstraw, Galium aparine); assay: Test C postemergence, galium
[24] = tested on: horseweed (Erigeron canadensis); assay: Test C postemergence, horseweed
Procedure, shortened: as §1

[25] = tested on: barnyardgrass (Echinochloa crusgalli); assay: Test D flooded paddy test, barnyardgrass; parameters: key: 0 = no effect, 100 = complete control; conditions: 250 g ai/ha, Flood; applied to paddy water at 2-leaf stage; visual rating after 13 days; scale 0 (no effect) to 100 (complete control)
Procedure, shortened: (§3)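 Plants were grown to the 2-leaf stage, then pots were flooded to 3 cm above soil and compounds applied directly into the paddy water, with that depth held throughout. After 13 days in a greenhouse, injury was visually rated against untreated controls on a 0–100 scale (0 no effect, 100 complete control).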

[26] = tested on: ducksalad (Heteranthera limosa); assay: Test D flooded paddy test, ducksalad; parameters: key: 0 = no effect, 100 = complete control; conditions: 250 g ai/ha, Flood; applied to paddy water at 2-leaf stage; visual rating after 13 days; scale 0 (no effect) to 100 (complete control)
Procedure, shortened: as §3

rice (Oryza sativa) = assay: Test D flooded paddy test, rice; parameters: key: 0 = no effect, 100 = complete control; conditions: 250 g ai/ha, Flood; applied to paddy water at 2-leaf stage; visual rating after 13 days; scale 0 (no effect) to 100 (complete control)
Procedure, shortened: as §3

[27] = tested on: sedge, umbrella (small-flower umbrella sedge, Cyperus difformis); assay: Test D flooded paddy test, umbrella sedge; parameters: key: 0 = no effect, 100 = complete control; conditions: 250 g ai/ha, Flood; applied to paddy water at 2-leaf stage; visual rating after 13 days; scale 0 (no effect) to 100 (complete control)
Procedure, shortened: as §3

[28] = tested on: blackgrass (Alopecurus myosuroides); assay: Test C postemergence, blackgrass; conditions: 125 g ai/ha Postemergence; 0 is no effect, 100 is complete control
[29] = 31 g ai/ha Postemergence, visual injury, 0 to 100 scale (0 no effect, 100 complete control)
[30] = 125 g ai/ha Postemergence, 0 is no effect, 100 is complete control

Cc1cc(C)c(N2CCC(O)C2=O)cc1NS(=O)(=O)C(F)(F)F (stereo not shown) [Compound 14]
60: Plant response rating (0 to 100 scale), Blackgrass ([1]; 31 g ai/ha Preemergence) | Plant response rating (0 to 100 scale), Oat, Wild ([6]; 125 g ai/ha Preemergence) | Plant response rating (0 to 100 scale), Ragweed ([8]; 125 g ai/ha Preemergence) | Goosegrass plant response rating [15, 29] | Plant response rating (0 to 100 scale), Oat, Wild [17, 30] | Ragweed plant response rating [19, 29] | Ryegrass, Italian plant response rating [20, 29] | Wheat plant response rating [22, 29] | Plant response rating (0 to 100 scale), Wheat [22, 30]
50: Plant response rating (0 to 100 scale), Kochia (kochia (Bassia scoparia) [5]; 31 g ai/ha Preemergence) | Plant response rating (0 to 100 scale), Wheat ([11]; 31 g ai/ha Preemergence) | Kochia plant response rating (kochia (Bassia scoparia) [16]; [29])
90: Plant response rating (0 to 100 scale), Blackgrass ([1]; 125 g ai/ha Preemergence) | Plant response rating (0 to 100 scale), Goosegrass ([4]; 31 g ai/ha Preemergence) | Plant response rating (0 to 100 scale), Pigweed, Palmer ([7]; 31 g ai/ha Preemergence) | Plant response rating (0 to 100 scale), Corn (corn (Zea mays) [13]; [30]) | Plant response rating (0 to 100 scale), Foxtail, Giant [14, 30] | Plant response rating (0 to 100 scale), Goosegrass [15, 30] | Plant response rating (0 to 100 scale), Pigweed, Palmer [18, 30] | Horseweed plant response rating [24, 29] | Plant response rating (0 to 100 scale), Horseweed [24, 30]
30: Oat, Wild plant response rating [17, 29]
20: Plant response rating (0 to 100 scale), Ragweed ([8]; 31 g ai/ha Preemergence) | Foxtail, Giant plant response rating [14, 29]
70: Corn plant response rating (corn (Zea mays) [13]; [29]) | Plant response rating (0 to 100 scale), Kochia (kochia (Bassia scoparia) [16]; [30]) | Plant response rating (0 to 100 scale), Blackgrass [28]
25: Plant response rating, Rice (rice (Oryza sativa))
35: Plant response rating, Sedge, Umbrella [27]
10: Plant response rating (0 to 100 scale), Corn (corn (Zea mays) [2]; 31 g ai/ha Preemergence) | Plant response rating (0 to 100 scale), Oat, Wild ([6]; 31 g ai/ha Preemergence) | Blackgrass plant response rating [12]
40: Plant response rating (0 to 100 scale), Ryegrass, Italian ([9]; 31 g ai/ha Preemergence) | Pigweed, Palmer plant response rating [18, 29]
0: Plant response rating, Barnyardgrass [25]
100: Plant response rating (0 to 100 scale), Corn (corn (Zea mays) [2]; 125 g ai/ha Preemergence) | Plant response rating (0 to 100 scale), Foxtail, Giant ([3]; 125 g ai/ha Preemergence) | Plant response rating (0 to 100 scale), Goosegrass ([4]; 125 g ai/ha Preemergence) | Plant response rating (0 to 100 scale), Kochia (kochia (Bassia scoparia) [5]; 125 g ai/ha Preemergence) | Plant response rating (0 to 100 scale), Pigweed, Palmer ([7]; 125 g ai/ha Preemergence) | Plant response rating (0 to 100 scale), Ryegrass, Italian ([9]; 125 g ai/ha Preemergence) | Plant response rating (0 to 100 scale), Soybean (soybean (Glycine max) [10]; 31 g ai/ha Preemergence) | Plant response rating (0 to 100 scale), Soybean (soybean (Glycine max) [10]; 125 g ai/ha Preemergence) | Plant response rating (0 to 100 scale), Wheat ([11]; 125 g ai/ha Preemergence) | Plant response rating (0 to 100 scale), Ryegrass, Italian [20, 30] | Galium plant response rating [23, 29] | Plant response rating (0 to 100 scale), Galium [23, 30]
80: Plant response rating (0 to 100 scale), Foxtail, Giant ([3]; 31 g ai/ha Preemergence) | Plant response rating (0 to 100 scale), Ragweed [19, 30] | Soybean plant response rating (soybean (Glycine max) [21]; [29]) | Plant response rating (0 to 100 scale), Soybean (soybean (Glycine max) [21]; [30])
65: Plant response rating, Ducksalad [26]
